Tests used:
[1] = tested on: HCV replicon RNA (GenBank Accession No. AJ242654); assay: HCV Replicon Assay (replicon RNA reduction and/or Fluc reporter signal); format: cell-based, Hepatitis C virus; settings: Hepatitis C virus, 72 h, replicon-containing cells cultured with test compound for up to 3 days
Procedure, shortened: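 Bicistronic replicon-containing cells cultured with compound for up to 3 days, with interferon as positive control. Inhibition quantified by replicon RNA reduction and/or Fluc reporter signal; IC50 values generally derived from replicon RNA reduction.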

## Cc1cnc2c(c1)c(C#N)c(-c1ccc(S(=O)(=O)N[C@H](C)C(F)(F)F)cn1)n2C1CCCC1 [Cpd 254, 6-(3-cyano-1-cyclopentyl-5-methyl-1H-pyrrolo[2,3-b]pyridin-2-yl)-N-[(2R)-1,1,1-trifluoropropan-2-yl]pyridine-3-sulfonamide]
[1]
  IC50: < 500 nM
other
  melting point: 155 to 162 °C

## Cc1cnc2c(C#N)c(-c3ccc(S(=O)(=O)N[C@@H](C)C(F)(F)F)cn3)n(-c3ccccc3)c2c1 [Cpd 476, 6-(3-cyano-6-methyl-1-phenyl-1H-pyrrolo[3,2-b]pyridin-2-yl)-N-[(2S)-1,1,1-trifluoropropan-2-yl]pyridine-3-sulfonamide]
[1]
  IC50: < 500 nM
other
  melting point: 245 to 247 °C

## C[C@H](NS(=O)(=O)c1ccc(-c2c(C#N)c3cc(Cl)cnc3n2-c2nccs2)nc1)C(F)(F)F [Cpd 429, 6-[5-chloro-3-cyano-1-(1,3-thiazol-2-yl)-1H-pyrrolo[2,3-b]pyridin-2-yl]-N-[(2S)-1,1,1-trifluoropropan-2-yl]pyridine-3-sulfonamide]
[1]
  IC50: < 500 nM
other
  melting point: 181 to 183 °C

## COc1cnc2c(c1)c(C#N)c(-c1ncc(S(=O)(=O)N[C@@H](C)C(F)(F)F)cc1C)n2C1CCC1 [Cpd 292, 6-(3-cyano-1-cyclobutyl-5-methoxy-1H-pyrrolo[2,3-b]pyridin-2-yl)-5-methyl-N-[(2S)-1,1,1-trifluoropropan-2-yl]pyridine-3-sulfonamide]
[1]
  IC50: < 500 nM
other
  melting point: 180 to 183 °C

## C[C@H](NS(=O)(=O)c1cnc(-c2c(C(N)=O)c3cc(C(F)F)cnc3n2C2CCC2)nc1)C(F)(F)F [Cpd 470, 1-cyclobutyl-5-(difluoromethyl)-2-(5-{[(2S)-1,1,1-trifluoropropan-2-yl]sulfamoyl}pyrimidin-2-yl)-1H-pyrrolo[2,3-b]pyridine-3-carboxamide]
[1]
  IC50: < 500 nM
other
  melting point: 199 to 201 °C

## Cc1cnc2c(C#N)c(-c3ccc(S(=O)(=O)NC(C)(C)C(F)(F)F)cn3)n(C3CCC3)c2c1 [Cpd 209, 6-(3-cyano-1-cyclobutyl-6-methyl-1H-pyrrolo[3,2-b]pyridin-2-yl)-N-(1,1,1-trifluoro-2-methylpropan-2-yl)pyridine-3-sulfonamide]
[1]
  IC50: < 500 nM
other
  melting point: 238 to 240 °C

## COc1cnc2c(c1)c(C#N)c(-c1ccc(S(=O)(=O)N[C@@H](C)C(F)(F)F)cn1)n2C1CCCC1 [Cpd 248, 6-(3-cyano-1-cyclopentyl-5-methoxy-1H-pyrrolo[2,3-b]pyridin-2-yl)-N-[(2S)-1,1,1-trifluoropropan-2-yl]pyridine-3-sulfonamide]
[1]
  IC50: < 500 nM
other
  melting point: 178 to 180 °C

## Cc1cnc2c(C#N)c(-c3ccc(S(=O)(=O)N[C@@H](C)C(F)(F)F)cn3)n(C3CCCC3)c2c1 [Cpd 170, 6-(3-cyano-1-cyclopentyl-6-methyl-1H-pyrrolo[3,2-b]pyridin-2-yl)-N-[(2S)-1,1,1-trifluoropropan-2-yl]pyridine-3-sulfonamide]
[1]
  IC50: < 500 nM
other
  melting point: 210 to 212 °C

## C[C@@H](NS(=O)(=O)c1ccc(-c2c(C#N)c3cc(-c4cccs4)cnc3n2C2CCC2)nc1)C(F)(F)F [Cpd 238, 6-[3-cyano-1-cyclobutyl-5-(thiophen-2-yl)-1H-pyrrolo[2,3-b]pyridin-2-yl]-N-[(2R)-1,1,1-trifluoropropan-2-yl]pyridine-3-sulfonamide]
[1]
  IC50: 2000 to 5000 nM
other
  melting point: 198 to 199 °C

## C[C@H](NS(=O)(=O)c1ccc(-c2c(C#N)c3cc(Cl)cnc3n2-c2ccccc2)nc1)C(F)(F)F [Cpd 308, 6-(5-chloro-3-cyano-1-phenyl-1H-pyrrolo[2,3-b]pyridin-2-yl)-N-[(2S)-1,1,1-trifluoropropan-2-yl]pyridine-3-sulfonamide]
[1]
  IC50: < 500 nM
other
  melting point: 211 to 213 °C

## N#Cc1c(-c2ncc(S(=O)(=O)NC(CF)CF)cn2)n(C2CCC2)c2nc(OC(F)F)ccc12 [Cpd 55, 2-[3-cyano-1-cyclobutyl-6-(difluoromethoxy)-1H-pyrrolo[2,3-b]pyridin-2-yl]-N-(1,3-difluoropropan-2-yl)pyrimidine-5-sulfonamide]
[1]
  IC50: < 500 nM
other
  melting point: 234 to 236 °C

## CC(C)(C)NS(=O)(=O)c1ccc(-c2c(C#N)c3cc(C(F)(F)F)cnc3n2-c2ccccc2)nc1 [Cpd 516, N-tert-butyl-6-[3-cyano-1-phenyl-5-(trifluoromethyl)-1H-pyrrolo[2,3-b]pyridin-2-yl]pyridine-3-sulfonamide]
[1]
  IC50: < 500 nM
other
  melting point: 201.2 to 202.4 °C

## Cc1cnc2c(c1)c(C#N)c(-c1ccc(S(=O)(=O)NC3(C(F)(F)F)CC3)cn1)n2C1CCC1 [Cpd 74, 6-(3-cyano-1-cyclobutyl-5-methyl-1H-pyrrolo[2,3-b]pyridin-2-yl)-N-[1-(trifluoromethyl)cyclopropyl]pyridine-3-sulfonamide]
[1]
  IC50: < 500 nM
other
  melting point: 245 to 247 °C

## Cc1cc2c(C#N)c(-c3ccc(S(=O)(=O)N[C@@H](C)C(F)(F)F)cn3)n(C3CCC3)c2cn1 [Cpd 165, 6-(3-cyano-1-cyclobutyl-5-methyl-1H-pyrrolo[2,3-c]pyridin-2-yl)-N-[(2S)-1,1,1-trifluoropropan-2-yl]pyridine-3-sulfonamide]
[1]
  IC50: 500 to 2000 nM
other
  melting point: 185 to 188 °C

## Cc1cnc2c(c1)c(C#N)c(-c1ccc(S(=O)(=O)N[C@@H](C)C(F)(F)F)cn1)n2CC(C)C [Cpd 495, 6-[3-cyano-5-methyl-1-(2-methylpropyl)-1H-pyrrolo[2,3-b]pyridin-2-yl]-N-[(2S)-1,1,1-trifluoropropan-2-yl]pyridine-3-sulfonamide]
[1]
  IC50: < 500 nM
other
  melting point: 125 to 130 °C

## Cc1cnc2c(C#N)c(-c3ccc(S(=O)(=O)N[C@@H](C)C(F)(F)F)cn3)n(-c3ncccn3)c2c1 [Cpd 475, 6-[3-cyano-6-methyl-1-(pyrimidin-2-yl)-1H-pyrrolo[3,2-b]pyridin-2-yl]-N-[(2S)-1,1,1-trifluoropropan-2-yl]pyridine-3-sulfonamide]
[1]
  IC50: < 500 nM
other
  melting point: 226 to 228 °C

## C[C@H](NS(=O)(=O)c1ccc(-c2c(C#N)c3cc(F)cnc3n2-c2ccccn2)nc1)C(F)(F)F [Cpd 322, 6-[3-cyano-5-fluoro-1-(pyridin-2-yl)-1H-pyrrolo[2,3-b]pyridin-2-yl]-N-[(2S)-1,1,1-trifluoropropan-2-yl]pyridine-3-sulfonamide]
[1]
  IC50: < 500 nM
other
  melting point: 229 to 231 °C

## COc1cnc2c(c1)c(C#N)c(-c1ccc(S(=O)(=O)NC(CF)CF)cn1)n2C1CCC1 [Cpd 9, 6-(3-cyano-1-cyclobutyl-5-methoxy-1H-pyrrolo[2,3-b]pyridin-2-yl)-N-(1,3-difluoropropan-2-yl)pyridine-3-sulfonamide]
[1]
  IC50: < 500 nM
other
  melting point: 161 to 163 °C

## COc1cnc2c(c1)c(C#N)c(-c1ccc(S(=O)(=O)NC3CCC3)cn1)n2C1CCC1 [Cpd 309, 6-(3-cyano-1-cyclobutyl-5-methoxy-1H-pyrrolo[2,3-b]pyridin-2-yl)-N-cyclobutylpyridine-3-sulfonamide]
[1]
  IC50: < 500 nM
other
  melting point: 203 to 207 °C

## CC(C)(C)NS(=O)(=O)c1ccc(-c2c(C#N)c3cc(F)cnc3n2-c2cnccn2)nc1 [Cpd 521, N-tert-butyl-6-[3-cyano-5-fluoro-1-(pyrazin-2-yl)-1H-pyrrolo[2,3-b]pyridin-2-yl]pyridine-3-sulfonamide]
[1]
  IC50: < 500 nM
other
  melting point: 245 to 247 °C

## C[C@@H](NS(=O)(=O)c1ccc(-c2c(C#N)c3cc(C#N)cnc3n2C2CCC2)nc1)C(F)(F)F [Cpd 107, 6-(3,5-dicyano-1-cyclobutyl-1H-pyrrolo[2,3-b]pyridin-2-yl)-N-[(2R)-1,1,1-trifluoropropan-2-yl]pyridine-3-sulfonamide]
[1]
  IC50: < 500 nM
other
  melting point: 202 to 203 °C

## CCc1cnc2c(c1)c(C#N)c(-c1ccc(S(=O)(=O)NC3(C(F)(F)F)CC3)cc1)n2C1CCC1 [Cpd 183, 4-(3-cyano-1-cyclobutyl-5-ethyl-1H-pyrrolo[2,3-b]pyridin-2-yl)-N-[1-(trifluoromethyl)cyclopropyl]benzenesulfonamide]
[1]
  IC50: 500 to 2000 nM
other
  melting point: 161 to 168 °C

## CSc1cnc2c(c1)c(C(N)=O)c(-c1ccc(NS(=O)(=O)C(C)C)cc1)n2C1CCCC1 [Cpd 358, 1-cyclopentyl-5-(methylsulfanyl)-2-{4-[(propan-2-ylsulfonyl)amino]phenyl}-1H-pyrrolo[2,3-b]pyridine-3-carboxamide]
[1]
  IC50: < 500 nM
other
  melting point: 250 to 252 °C

## C[C@H](NS(=O)(=O)c1ccc(-c2c(C#N)c3cc(C(F)(F)F)cnc3n2-c2cnccn2)nc1)C(F)(F)F [Cpd 316, 6-[3-cyano-1-(pyrazin-2-yl)-5-(trifluoromethyl)-1H-pyrrolo[2,3-b]pyridin-2-yl]-N-[(2S)-1,1,1-trifluoropropan-2-yl]pyridine-3-sulfonamide]
[1]
  IC50: < 500 nM
other
  melting point: 226 to 228 °C

## Cc1cnc2c(c1)c(C#N)c(-c1ccc(S(=O)(=O)N[C@H](C)C(F)(F)F)cc1)n2C1CCC1 [Cpd 72, 4-(3-cyano-1-cyclobutyl-5-methyl-1H-pyrrolo[2,3-b]pyridin-2-yl)-N-[(2R)-1,1,1-trifluoropropan-2-yl]benzenesulfonamide]
[1]
  IC50: < 500 nM
other
  melting point: 197 to 198 °C

## N#Cc1c(-c2ccc(S(=O)(=O)NC3(C(F)(F)F)CC3)cn2)n(C2CCC2)c2ncc(Cl)cc12 [Cpd 57, 6-(5-chloro-3-cyano-1-cyclobutyl-1H-pyrrolo[2,3-b]pyridin-2-yl)-N-[1-(trifluoromethyl)cyclopropyl]pyridine-3-sulfonamide]
[1]
  IC50: < 500 nM
other
  melting point: 254 to 255 °C

## CC(C)(C)S(=O)(=O)Nc1ccc(-c2c(C#N)c3ncc(Cl)cc3n2C2CCCCC2)cc1 [Cpd 288, N-[4-(6-chloro-3-cyano-1-cyclohexyl-1H-pyrrolo[3,2-b]pyridin-2-yl)phenyl]-2-methylpropane-2-sulfonamide]
[1]
  IC50: 500 to 2000 nM
other
  melting point: 279 to 283 °C
